Data published in publication PMC9394307, “Discovery of Putative Dual Inhibitor of Tubulin and EGFR by Phenotypic Approach on LASSBio-1586 Homologs” (Pharmaceuticals, 2022).
Read-outs that look alike come from different tables or passages of the source.

What was measured:
HL-60 = tested on: HL-60; set-up: method as in PMID 24614859; settings: cited from earlier work
H292 = test: MTT cell viability assay, H292; format: cell-based, human; settings: Homo sapiens, MTT, value (95% CI), read-out: CC50 (µM) (CI) H292
Experimental: (§1) The cytotoxic activity of compounds 3–13 was determined based on an MTT assay against different human tumor cell lines, using LASSBio-1586 (2), LASSBio-1735 (3), CA-4 (1) and pelitinib as standards (Table 2). To determine the cytotoxic selectivity index, compounds were also evaluated toward human lymphocytes (Table 3).
(§2) The target compounds were tested (0.0001–100 µM) for cytotoxic activity against selected human cancer cell lines, such as HL-60 (acute promyelocytic leukemia), MCF-7 (mammary adenocarcinoma), PC-3 (prostate adenocarcinoma), H1975 (non-small cell lung cancer—EGFR^L858R+T790M), PC-9 (non-small cell lung cancer—EGFR^L858R) H292 (mucoepidermoid pulmonary carcinoma—EGFR wild type), LoVo (colorectal adenocarcinoma—EGFRwild type) and GM16000 (lymphocyte). All the human cancer cell lines were purchased from Cell Bank of Rio de Janeiro—BCRJ. They were cultured in RPMI 1640 medium with 10% (v/v) FBS, 2 mM glutamine, at 37 °C in a humidified incubator containing 5% CO2.
The cytotoxicity of the compounds was evaluated by the MTT assay. […] For lymphocytic lines, a density of 0.3 × 10^6 cells/mL was used. Afterwards they were treated with varying concentrations of the target compounds 2–12 (0.0001–100 µM), CA-4 (1) and pelitinib at 37 °C, in triplicate. The medium was incubated with 20 μL of 5 mg/mL MTT solution for 3 h in a humidified incubator containing 5% CO2 [11].
(§3) The purple-colored formazan crystals formed in the wells were dissolved in DMSO and their absorbance was measured at 595 nm with a microplate reader (SpectraMax M5, Molecular Devices).

H1975 cells = test: Cell cycle analysis by flow cytometry (Guava Muse Cell Cycle Kit); format: cell-based, human; settings: H1975, 48 h of treatment; CA-4 0.04 µM, LASSBio-1586 2.0 µM, LASSBio-1735 0.08 µM, LASSBio-2070 3.0 µM, LASSBio-2074 1.5 µM; vs DMSO 0.1%
Experimental: Changes in the cell cycle are important aspect in tumorigenesis. Therefore, the identification of the steps related to inhibition of cell multiplication is an important process during the discovery of new antitumoral drug candidates. […] Flow cytometry was used for cell cycle analysis to estimate the percentages of a cell population in the different phases of the cell cycle. The analysis was performed using the lung cancer cell line H1975 treated with CA-4 (1, 0.04 µM), LASSBio-1586 (2, 2.0 µM), LASSBio-1735 (3, 0.08 µM), LASSBio-2070 (10, 3.0 µM) and LASSBio-2074 (11, 1.5 µM).
(§4) Flow cytometry was applied to help elucidate the mechanism of action of the studied compounds, both to verify the cell cycle phase and to verify the action on EGFR protein kinase.
The anti-tubulin effect was evaluated by seeding H1975, H292 and PC-9 into 6-well plates at a density of 2 × 10^5 per well. […] Cells were harvested and stained according to the protocols of The Guava Muse® Cell Cycle Kit (MCH100106) to quantitatively measure the percentage of cells in the G2/M phases of the cell cycle and the EGFR-RTK Activation Dual Detection Kit (MCH200102) (Luminex®) to measure EGFR phosphorylation in relation to total EGFR expression in the cell population, according to the manufacturer’s instructions for use in test kits using a Guava Muse® Cell Analyzer (Luminex®). Each experiment was performed at least three times independently.

[1] = MTT cell viability assay, GM16000 lymphocytes; format: cell-based; settings: GM16000 lymphocyte cells (non-tumor), human lymphocytes, value (95% CI)
Experimental: as §1
To establish the cytotoxic selective index (SI) of LASSBio-1586 homologs, they were studied on human lymphocyte cell lines (GM16000), using the MTT assay. The SI was calculated by the ratio between the CC50 on tumor and non-tumor cell lines. Although there is no consensus, values of SI ≥ 10 is considered satisfactory to assign safety to a new cytotoxic agent. This value means that the compound is more than ten times more cytotoxic to the tumor cell line than to normal cell line.
as §2
(§5) The cytotoxicity of the compounds was evaluated by the MTT assay. The cell lines were cultured in 96 well plates for 72 h with a density of 0.1 × 10^5 cells/mL to 0.7 × 10^5 cells/mL to adherent cell lines. For lymphocytic lines, a density of 0.3 × 10^6 cells/mL was used. Afterwards they were treated with varying concentrations of the target compounds 2–12 (0.0001–100 µM), CA-4 (1) and pelitinib at 37 °C, in triplicate. The medium was incubated with 20 μL of 5 mg/mL MTT solution for 3 h in a humidified incubator containing 5% CO2 [11].
as §3

LoVo = test: MTT cell viability assay, LoVo; format: cell-based; settings: Homo sapiens, MTT, 72 h, value (95% CI), read-out: CC50 (µM) (CI) LoVo
Experimental: as §1, §2, §5, §3

PC-3 = test: MTT cell viability assay, PC-3; format: cell-based; settings: Homo sapiens, PC-3; MTT, 72 h; value (95% CI); read-out: CC50 (µM) (CI) PC-3
Experimental: as §1, §2, §5, §3

[2] = tested on: EGFR in PC-9 cell line (EGFR^L858R); test: Guava Muse EGFR-RTK Activation Dual Detection Kit, flow cytometry; format: cell-based, human; settings: PC-9, LASSBio-2070 0.03 µM
Experimental: as §4
The anti-tubulin effect was evaluated by seeding H1975, H292 and PC-9 into 6-well plates at a density of 2 × 10^5 per well. The cells were treated with the selected compounds for 72 h. Cells were harvested and stained according to the protocols of The Guava Muse® Cell Cycle Kit (MCH100106) to quantitatively measure the percentage of cells in the G2/M phases of the cell cycle and the EGFR-RTK Activation Dual Detection Kit (MCH200102) (Luminex®) to measure EGFR phosphorylation in relation to total EGFR expression in the cell population, according to the manufacturer’s instructions for use in test kits using a Guava Muse® Cell Analyzer (Luminex®). Each experiment was performed at least three times independently.

HCT-116 = tested on: HCT-116; set-up: method as in PMID 24614859, PMID 30006065, PMID 25564377; settings: cited from earlier work
β-tubulin = tested on: β-tubulin; set-up: method as in PMID 24614859, PMID 30006065, PMID 25564377; settings: cited from earlier work
SF-295 = tested on: SF-295; set-up: method as in PMID 24614859, PMID 30006065, PMID 25564377; settings: cited from earlier work

SMILES | cytotoxic potency against HL-60 compared with LASSBio-1586 (2) (HL-60) | CC50 (H292; NCI-H292, 48 h, 48 h) | CC50 (H292; NCI-H292, 72 h, 72 h) | cell cycle distribution (G0/G1, S, G2/M) (H1975 cells) | CC50 at 72 h [1] | CC50 (LoVo) | CC50 (PC-3) | modulation of EGFR activity in a phenotypic model [2] | proliferation of HCT-116 in the Hollow Fiber Assay (HCT-116) | ability to inhibit β-tubulin (β-tubulin) | proliferation of SF-295 in the Hollow Fiber Assay (SF-295)
COc1cc(C(=O)N(C)/N=C/c2ccccc2)cc(OC)c1OC [LASSBio-1735 (3), (E)-N’-benzylidene-3,4,5-trimethoxy-N-methylbenzohydrazide] | cytotoxic potency superior to LASSBio-1586 (2) | 0.152 µM | 0.25 µM | increased cells in phase G2/M | 0.131 µM | 0.149 µM | 0.201 µM | – | – | – | –
COc1cc(C(=O)N(Cc2ccccc2)/N=C/c2ccccc2)cc(OC)c1OC [LASSBio-2070 (10), (E)-N-benzyl-N’-benzylidene-3,4,5-trimethoxybenzohydrazide] | – | 0.147 µM | 0.883 µM | increased cells in phase G2/M | 1.05 µM | 0.208 µM | 0.361 µM | inhibiting the phosphorylation of EGFR | – | – | –
CCOC(=O)CN(/N=C/c1ccccc1)C(=O)c1cc(OC)c(OC)c(OC)c1 [LASSBio-2074 (11), Ethyl (E)-N-(benzylideneamino)-N-(3,4,5-trimethoxybenzoyl)glycinate] | – | 0.593 µM | 0.75 µM | increased cells in phase G2/M | 4.19 µM | 0.106 µM | 1.36 µM | – | – | – | –
COc1cc(C(=O)N/N=C/c2ccccc2)cc(OC)c1OC [LASSBio-1586 (2), (E)-N’-benzylidene-3,4,5-trimetoxybenzohydrazide] | – | 2.19 µM | 1.4 µM | increased cells in phase G2/M | 1.51 µM | 0.039 µM | 1.62 µM | – | able to decrease proliferation | confirmed | able to decrease proliferation
